#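 Method: 48-hour compound exposure of cells in 96-well plates, five concentrations, linear interpolation of endpoints. Abbreviation: GI50, concentration required for 50% inhibition of growth.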 Active and inactive are the calls of the source. No stated cut-off is given here; in the data, active = GI50 up to about 1.1 µM and inactive = higher.
# Columns and labels:
# Assay in all cases: NCI tumour cell line growth inhibition, 48 h
# DLD-1 = test system: DLD-1
# DMS-114 = test system: DMS-114
# DMS-273 = test system: DMS-273
# HOP-18 = test system: HOP-18
# KM-20L2 = test system: KM-20L2
# LXFL 529 = test system: LXFL 529
# SNB-78 = test system: SNB-78
# XF498 = test system: XF498
# RXF 631 = test system: RXF 631
Structure (SMILES),GI50 (DLD-1),GI50 (DMS-114),GI50 (DMS-273),GI50 (HOP-18),GI50 (KM-20L2),GI50 (LXFL 529),GI50 (SNB-78),GI50 (XF498),GI50 (RXF 631)
CC1=CC(=O)NCCN1C,> 100 µM (inactive),> 100 µM (inactive),> 100 µM (inactive),> 100 µM (inactive),> 100 µM (inactive),> 100 µM (inactive),> 100 µM (inactive),> 100 µM (inactive),
c1ccc(NC[Si]23OCCN(CCO2)CCO3)cc1,> 100 µM (inactive),> 100 µM (inactive),> 100 µM (inactive),> 100 µM (inactive),,> 100 µM (inactive),> 100 µM (inactive),,> 100 µM (inactive)
CCOc1ccccc1NC(=O)C(=O)CC(=O)C1=C(C)Nc2ccccc2S1,> 100 µM (inactive),,> 100 µM (inactive),,> 100 µM (inactive),> 100 µM (inactive),> 100 µM (inactive),> 100 µM (inactive),
C=C(Br)N(CC)CC,> 100 µM (inactive),> 100 µM (inactive),> 100 µM (inactive),> 100 µM (inactive),> 100 µM (inactive),> 100 µM (inactive),> 100 µM (inactive),,> 100 µM (inactive)
C/C(CC(=O)Nc1ccccc1[N+](=O)[O-])=N\NC(N)=O,> 100 µM (inactive),> 100 µM (inactive),,,> 100 µM (inactive),> 100 µM (inactive),> 100 µM (inactive),> 100 µM (inactive),> 100 µM (inactive)
CCOC(=O)c1cc(-c2ccc(-c3cc(C(=O)OCC)c(C#N)c(N)c3C#N)cc2)c(C#N)c(N)c1C#N,> 100 µM (inactive),> 100 µM (inactive),> 100 µM (inactive),> 100 µM (inactive),> 100 µM (inactive),> 100 µM (inactive),> 100 µM (inactive),> 100 µM (inactive),> 100 µM (inactive)
COC(=O)[C@@H]1c2cc3c(c(O)c2[C@@H](OC2OC(C)C(OC)C(C)(OC)C2OC)C[C@]1(C)O)C(=O)c1c(O)cc2c(c1C3=O)O[C@H]1O[C@]2(C)[C@H](O)[C@@H](N(C)C)[C@@H]1O (stereo partly specified),0.00146 µM (active),0.00107 µM (active),0.01 µM (active),0.00323 µM (active),0.00745 µM (active),0.000391 µM (active),0.00306 µM (active),0.00177 µM (active),
Cc1c2cc[n+](C)cc2c(C)c2c1[nH]c1ccc(Cl)cc12,1.05 µM (active),0.341 µM (active),1.76 µM (inactive),3.78 µM (inactive),2.58 µM (inactive),0.286 µM (active),0.288 µM (active),,
CC/C=C\C/C=C\C/C=C\CCCCCCCC(=O)OCC(O)CO (stereo unspecified),> 100 µM (inactive),44.4 µM (inactive),> 100 µM (inactive),52.2 µM (inactive),> 100 µM (inactive),> 56.9 µM (inactive),> 58.7 µM (inactive),> 100 µM (inactive),
CC(N)CC(=O)O (stereo unspecified),> 5000 µM (inactive),> 5000 µM (inactive),> 5000 µM (inactive),> 5000 µM (inactive),> 5000 µM (inactive),> 5000 µM (inactive),> 5000 µM (inactive),,
CC(C)(Oc1ccc2c(=O)cc(-c3ccc(Cl)cc3)oc2c1)C(=O)Nc1c(Cl)cccc1Cl,> 100 µM (inactive),> 100 µM (inactive),> 100 µM (inactive),> 100 µM (inactive),> 100 µM (inactive),> 100 µM (inactive),> 100 µM (inactive),> 100 µM (inactive),
O=C(O/N=C1/CCC/C1=C\c1ccccc1)c1ccccc1,43.8 µM (inactive),35 µM (inactive),> 100 µM (inactive),> 100 µM (inactive),58.3 µM (inactive),28.9 µM (inactive),> 100 µM (inactive),,
CN1CCN=C1c1nnn(-c2ccc([N+](=O)[O-])cc2)c1-c1ccccc1,67 µM (inactive),89.3 µM (inactive),> 100 µM (inactive),> 100 µM (inactive),> 100 µM (inactive),> 100 µM (inactive),> 100 µM (inactive),89.3 µM (inactive),
CC(C)OC(=O)C1=C(O)c2ccccc2S(=O)(=O)N1,> 100 µM (inactive),,> 100 µM (inactive),> 100 µM (inactive),> 100 µM (inactive),> 100 µM (inactive),> 100 µM (inactive),> 100 µM (inactive),> 100 µM (inactive)
CCC12CCCN(Cc3ccccc3)C1c1c(n(C)c3ccccc13)CC2 (stereo unspecified),> 253 µM (inactive),,166 µM (inactive),,103 µM (inactive),167 µM (inactive),,,
COc1cc2cnc3c4cc(OCc5ccccc5)ccc4ccc3c2cc1OC,18.4 µM (inactive),11.4 µM (inactive),,18.4 µM (inactive),80 µM (inactive),18.8 µM (inactive),19.1 µM (inactive),,14.1 µM (inactive)
CC(=O)N1C/C(=C\c2ccccc2)C(=O)/C(=C/c2ccccc2)C1,8.71 µM (inactive),,4.85 µM (inactive),18.8 µM (inactive),15.6 µM (inactive),9.4 µM (inactive),17.2 µM (inactive),23.8 µM (inactive),
C#CCN(Cc1ccc2nc(-c3ccccc3)c(Cl)nc2c1)c1ccc(Cl)c(Cl)c1,> 100 µM (inactive),> 100 µM (inactive),> 100 µM (inactive),> 100 µM (inactive),> 100 µM (inactive),> 100 µM (inactive),38.1 µM (inactive),> 100 µM (inactive),
CC(=O)[O-].[Zn+].c1ccc(/C(=N\Nc2ccccn2)c2ccccn2)cc1,0.0231 µM (active),0.01 µM (active),0.309 µM (active),0.247 µM (active),0.01 µM (active),0.0429 µM (active),2.38 µM (inactive),,
CO[C@H](C(=O)O[C@H]1C(=O)N2CCC3CCC1C32C)c1ccccc1 (stereo partly specified),> 100 µM (inactive),> 100 µM (inactive),,> 100 µM (inactive),> 100 µM (inactive),> 100 µM (inactive),> 100 µM (inactive),> 100 µM (inactive),
CCOC(=O)c1c2ccc(/C=C/c3ccccn3)ccc-2c(C(=O)OCC)c1N,> 100 µM (inactive),> 100 µM (inactive),> 100 µM (inactive),> 100 µM (inactive),> 100 µM (inactive),72.6 µM (inactive),,,> 100 µM (inactive)
COc1ccc(C(=O)O)c(Cc2cccc3ccccc23)c1,> 100 µM (inactive),> 100 µM (inactive),> 100 µM (inactive),> 100 µM (inactive),> 100 µM (inactive),> 100 µM (inactive),,,> 100 µM (inactive)
NC(=S)N/N=C/C(O[C@@H](/C=N/NC(N)=S)CO)n1cnc2c(N)ncnc21 (stereo partly specified),,28.4 µM (inactive),> 55.1 µM (inactive),> 48.8 µM (inactive),> 61.1 µM (inactive),> 78.2 µM (inactive),> 100 µM (inactive),> 100 µM (inactive),> 100 µM (inactive)
CC1/C(=N\O)CC(c2ccccc2)N(C)C1c1ccccc1 (stereo unspecified),> 100 µM (inactive),> 100 µM (inactive),> 100 µM (inactive),,> 100 µM (inactive),> 100 µM (inactive),> 100 µM (inactive),,> 100 µM (inactive)
CN1CCN(Cc2nc3cccc4c3c([n+]2[O-])-c2ccccc2-4)CC1,54.5 µM (inactive),44.4 µM (inactive),44.1 µM (inactive),37.2 µM (inactive),36.4 µM (inactive),38.3 µM (inactive),15.1 µM (inactive),,60.4 µM (inactive)
O=C(NC1C(=O)NNC1c1cccc([N+](=O)[O-])c1)c1ccccc1 (stereo unspecified),> 100 µM (inactive),> 100 µM (inactive),,> 100 µM (inactive),> 100 µM (inactive),> 100 µM (inactive),> 100 µM (inactive),> 100 µM (inactive),> 100 µM (inactive)

# From ChEMBL document CHEMBL1201862, “PubChem BioAssay data set” (2004)
